How the values were obtained:
Test in all cases: relative viability (nuclei count vs DMSO), 5 days (fraction); higher = more cells survive
Entinostat + Lapatinib = compound: Nc1ccccc1NC(=O)c1ccc(CNC(=O)OCc2cccnc2)cc1 [Entinostat] + CS(=O)(=O)CCNCc1ccc(-c2ccc3ncnc(Nc4ccc(OCc5cccc(F)c5)c(Cl)c4)c3c2)o1 [Lapatinib] (partner 2 µM)
In short: (§1)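 A single step with final 0.05% Triton X-100, 1% formaldehyde and 1 ug/ml Hoechst fixed the cells and stained nuclei 5 days after treatment. Lung cancer cell lines in 1536-well plates had been treated by pin tool the day after seeding with one drug alone or a fixed anchor-drug dose plus five library-drug doses (not always all listed) in √10 steps, and nuclei were counted on 4× images. Relative viability is the ratio of nuclei in treated wells to nuclei in vehicle wells, taken as the median of duplicate plates.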

[1] = compound: C1COCCN1C2=NC(=NC3=C2OC4=C3C=CC=N4)C5=CC(=CC=C5)NC(=O)C6=CN=C(C=C6)N + Nc1nc2[nH]cc(CCc3ccc(C(=O)N[C@@H](CCC(=O)O)C(=O)O)cc3)c2c(=O)[nH]1 [Pemetrexed] (partner 0.2 µM)
In short: as §1

[2] = compound: C1COCCN1C2=NC(=NC3=C2OC4=C3C=CC=N4)C5=CC(=CC=C5)NC(=O)C6=CN=C(C=C6)N + Cc1nc(Nc2ncc(C(=O)Nc3c(C)cccc3Cl)s2)cc(N2CCN(CCO)CC2)n1 [Dasatinib] (partner 0.075 µM)
In short: as §1

SGI-1776 + Linsitinib = compound: CN1CCC(CNc2ccc3ncc(-c4cccc(OC(F)(F)F)c4)n3n2)CC1 [SGI-1776] + C[C@]1(O)C[C@@H](c2nc(-c3ccc4ccc(-c5ccccc5)nc4c3)c3c(N)nccn32)C1 [Linsitinib] (partner 1 µM)
In short: as §1

Cell Line: UMC-11
- relative viability (Entinostat + Lapatinib; first compound 0.02 µM): 1.17
- relative viability (Entinostat + Lapatinib; first compound 0.06325 µM): 1.21
- relative viability (Entinostat + Lapatinib; first compound 0.2 µM): 1.28
- relative viability (Entinostat + Lapatinib; first compound 0.6325 µM): 0.222
- relative viability (Entinostat + Lapatinib; first compound 2 µM): 0.173
- relative viability ([1]; first compound 0.02 µM): 0.772
- relative viability ([1]; first compound 0.06325 µM): 0.827
- relative viability ([1]; first compound 0.2 µM): 0.694
- relative viability ([1]; first compound 0.6325 µM): 0.814
- relative viability ([1]; first compound 2 µM): 0.445
- relative viability ([2]; first compound 0.02 µM): 0.454
- relative viability ([2]; first compound 0.06325 µM): 0.519
- relative viability ([2]; first compound 0.2 µM): 0.514
- relative viability ([2]; first compound 0.6325 µM): 0.527
- relative viability ([2]; first compound 2 µM): 0.266
- relative viability (SGI-1776 + Linsitinib; first compound 0.08 µM): 1.06
- relative viability (SGI-1776 + Linsitinib; first compound 0.8 µM): 0.987
- relative viability (SGI-1776 + Linsitinib; first compound 2.53 µM): 0.971
- relative viability (SGI-1776 + Linsitinib; first compound 8 µM): 0.836

Reference: the supplement of paper PMC10307832
